Measured values from patent publication US20100041631A1 (priority 2006, published 2010).
Where two headings read alike, the source gives them in different places.

Assays:
HsaCH37Rv = HsaCH37Rv (Mycobacterium tuberculosis, UniProt P9WNW7); assay type: biochemical, M. tuberculosis H37Rv; details: for Km: cell extract, pH 8.0, 25 °C
M tuberculosis HsaC = M tuberculosis HsaC (Mycobacterium tuberculosis, UniProt P9WNW7); test: Inhibition of cloned M. tuberculosis HsaC, spectroscopic assay; assay type: biochemical; details: in a manner consistent with oxidation of the active site Fe(II)
HsaDH37Rv = HsaDH37Rv (Mycobacterium tuberculosis, UniProt P9WNH5); assay type: biochemical, M. tuberculosis H37Rv; details: for Vmax / Km: substrate of HsaDH37Rv, standard error in parentheses; for Km: cell extract, pH 8.0, 25 °C
M. tuberculosis H37Rv = test: Growth of H37Rv on cholesterol or 4-AD as growth substrate; assay type: cell-based; details: for growth of H37Rv colonies on solid medium: substance as the sole organic substrate, no growth on control medium
[1] = system: M. bovis Bacillus Calmette-Guerin (BCG); assay type: cell-based
[2] = substrate of HsaCH37Rv, standard error in parentheses

HsaCH37Rv, sequence (P9WNW7 whole entry, looked up): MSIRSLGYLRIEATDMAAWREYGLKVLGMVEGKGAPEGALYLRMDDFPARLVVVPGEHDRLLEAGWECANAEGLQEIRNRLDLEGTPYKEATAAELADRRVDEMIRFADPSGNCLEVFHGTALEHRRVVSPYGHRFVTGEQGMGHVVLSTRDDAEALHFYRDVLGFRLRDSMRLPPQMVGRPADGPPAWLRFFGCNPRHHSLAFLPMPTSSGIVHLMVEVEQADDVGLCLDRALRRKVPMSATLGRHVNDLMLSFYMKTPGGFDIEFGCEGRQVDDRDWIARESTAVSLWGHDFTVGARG
HsaDH37Rv, sequence (P9WNH5 whole entry, looked up): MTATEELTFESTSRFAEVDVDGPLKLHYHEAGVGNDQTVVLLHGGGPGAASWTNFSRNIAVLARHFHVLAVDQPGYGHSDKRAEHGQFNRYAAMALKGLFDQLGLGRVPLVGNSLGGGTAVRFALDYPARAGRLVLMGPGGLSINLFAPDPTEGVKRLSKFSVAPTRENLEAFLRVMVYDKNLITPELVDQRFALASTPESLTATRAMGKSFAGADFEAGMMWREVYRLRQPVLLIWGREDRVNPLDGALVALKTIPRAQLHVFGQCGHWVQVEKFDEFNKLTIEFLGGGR
M tuberculosis HsaC, sequence (P9WNW7 whole entry, looked up): as the sequence (P9WNW7 whole entry, looked up) above

Question: How did the “apparent specificity of extradiol cleavage relative to DHB” value (HsaCH37Rv) turn out when Cc1ccc(O)c(O)c1CC[C@@H]1C(=O)CC[C@]2(C)C(=O)CC[C@@H]12 [3,4-DHSA, 3,4-dihydroxy-9,10-seconandrost-1,3,5(10)-triene-9,17-dione] was run?
Answer: 44 fold

Question: And the Vmax (HsaCH37Rv; substrate of HsaCH37Rv, […], standard error in parentheses)?
Answer: 12 (4) μM^s−1

Question: What about the Km (HsaCH37Rv; [2]) of the same compound?
Answer: 0.9 µM

Question: Which “inactivation of HsaC” value (M tuberculosis HsaC) does the source give for Oc1cccc(Cl)c1O [3CC, 3-chlorocatechol] here?
Answer: inactivated HsaC

Question: For C/C(=C\C=C(/O)C(=O)O)C(=O)CC[C@@H]1C(=O)CC[C@]2(C)C(=O)CC[C@@H]12 [4,9-DSHA, 4,5-9,10-diseco-3-hydroxy-5,9,17-trioxoandrosta-1(10),2-diene-4-oic acid], which “apparent specificity of hydrolysis relative to HOPDA” value (HsaDH37Rv; […], higher than for HOPDA) is on record?
Answer: 34 fold

Question: What about the Vmax (HsaDH37Rv; […]) of the same compound?
Answer: 0.06 (0.02) μM^s−1

Question: What about the Km (HsaDH37Rv) of the same compound?
Answer: 4 µM

Question: With C[C@]12CCC(=O)C=C1CC[C@@H]1[C@@H]2CC[C@]2(C)C(=O)CC[C@@H]12 [4-AD, 4-androstene-3,17-dione] as the compound, how does the “growth of H37Rv colonies on solid medium” value (M. tuberculosis H37Rv) read?
Answer: Colonies grew

Question: How did the Vmax (HsaCH37Rv) turn out when Oc1cccc(-c2ccccc2)c1O [DHB] was run?
Answer: 2.5 (0.4) μM^s−1

Question: And the Km (HsaCH37Rv; [2])?
Answer: 8.5 µM

Question: Which results are given for O=C(O)C(O)=CC=CC(=O)c1ccccc1 [HOPDA, 2-hydroxy-6-oxo-6-phenylpentadienoate]?
Answer: Vmax (HsaDH37Rv; […]): 0.009 (0.003) μM^s−1; Km (HsaDH37Rv): 19 µM

Question: Which “overall protein yield of BCG culture” value ([1]; medium supplemented with 0.25 mM cholesterol (0 mM: 22+/−7)) does the source give for CC(C)CCC[C@@H](C)[C@H]1CC[C@H]2[C@@H]3CC=C4C[C@@H](O)CC[C@]4(C)[C@H]3CC[C@]12C [cholesterol] here?
Answer: 46 ± 9 µg/mL

Question: What about the “overall protein yield of BCG culture” value ([1]; medium supplemented with 0.5 mM cholesterol (0 mM: 22+/−7)) of the same compound?
Answer: 70 ± 4 µg/mL

Question: And the “growth of H37Rv in liquid culture” value (M. tuberculosis H37Rv; phospholipid vesicles containing cholesterol versus vesicles containing no cholesterol)?
Answer: grew faster

Question: And the “growth of H37Rv colonies on solid medium” value (M. tuberculosis H37Rv)?
Answer: Colonies grew
